From EP0505047B1, “Rearranged taxol compounds and method of using in testing of in vivo activity” (VIRGINIA TECH INTELLECTUAL PROPERTIES, INC., priority 1991, dated 1992)
Values after ≈ are worked out from the molar mass of the structure shown.

What was measured:
KB cells = assay: KB cell culture assay; type: cell-based; conditions: ED₅₀ of less than 4.0 indicates activity; for EC50: Homo sapiens, read-out: ED⁵⁰ (µg/ml) cell culture
Experimental: Taxol (1), the Meerwein product (4), the acetyl chloride product (7), and A-nor-taxol (10) were tested in KB cell culture assays. […]

tubulin = tubulin depolymerization assay; type: biochemical; conditions: for IC50: in vitro, read-out: ID₅₀(µM) in tubulin depolymerization assay
From the text: Taxol (1), the Meerwein product (4), the acetyl chloride product (7), and A-Nor-Taxol (10) were also subjected to tubulin depolymerization assays with the results presented in Table XVI below.

Compound	EC50 (KB cells) [µg/mL]	IC50 (tubulin) [µM]	activity in the tubulin depolymerization assay compared with taxol (tubulin; result in words)	ED⁵⁰ (µg/ml) cell culture (KB cells) [µg/mL]
C=C(C)C12CC(OC(=O)C(O)C(NC(=O)c3ccccc3)c3ccccc3)C(C)=C1C(OC(C)=O)C(=O)C1(C)C(O)CC3OCC3(OC(C)=O)C1C2OC(=O)c1ccccc1 (stereo not drawn) [A-Nortaxol (10), A-Nortaxol]	2 (≈ 2.39 µM)	0.9	very similar to taxol	–
CC(=O)O[C@H]1C(=O)[C@@]2(C)[C@H]([C@H](OC(=O)c3ccccc3)[C@]3(O)C[C@H](OC(=O)[C@H](O)[C@@H](NC(=O)c4ccccc4)c4ccccc4)C(C)=C1C3(C)C)[C@]1(OC(C)=O)CO[C@@H]1C[C@@H]2O [Taxol (1), taxol]	1e-05 (≈ 1.17e-05 µM)	0.3	–	–
acetylated A-Nor-D-seco-taxol [Acetyl Chloride product (7)]	–	–	–	2.5
